In patent US10155021B2, “Antimicrobial 4-oxoquinolizines” (Emergent Product Development Gaithersburg Inc., priority 2011, dated 2018):
Values after ≈ are worked out from the molar mass of the structure shown. Read-outs that look alike come from different tables or passages of the source.

Columns and labels:
S. aureus 25923 HS = assay: MIC, standard panel of Gram-positive and Gram-negative bacteria (CLSI); type: cell-based; settings: Staphylococcus aureus, CAMHB, HS, read-out: MIC S. aureus 25923 HS
A. baumannii A390 [1] = assay: MIC determination for Acinetobacter strains (Example 3); type: cell-based; settings: LEV R, CIP R, MRP R, IPM I, AMK R, TET I
A. baumannii A390 [2] = assay: MIC without and with sub-inhibitory polymyxin B (Example 4); type: cell-based, Acinetobacter baumannii; settings: Acinetobacter baumannii, A390, A. baumannii A390, without polymyxin B, read-out: MIC without PB
S. aureus 25923 = assay: MIC, standard panel of Gram-positive and Gram-negative bacteria (CLSI); type: cell-based, Staphylococcus aureus; settings: Staphylococcus aureus, 25923; CAMHB; read-out: MIC S. aureus 25923
E. faecium 19434 = assay: as above; type: cell-based, Enterococcus faecium; settings: Enterococcus faecium, 19434; CAMHB; read-out: MIC E. faecium 19434
A. baumannii A472 = assay: MIC determination for Acinetobacter strains (Example 3); type: cell-based; settings: LEV R, CIP R, MRP I, IMP I, AMK R, TET R
S. aureus 101 = assay: MIC, standard panel of Gram-positive and Gram-negative bacteria (CLSI); type: cell-based, Staphylococcus aureus; settings: Staphylococcus aureus, 101; CAMHB; read-out: MIC S. aureus 101
E. coli IMP = assay: microbe, parasite or virus in culture; settings: Escherichia coli, read-out: MIC E. coli IMP
A. Baumanii OXA-51 = assay: MIC, panel of quinolone-resistant strains (CLSI); type: cell-based; settings: Acinetobacter baumannii; CIP R, ESBL
B. thailandensis = assay: microbe, parasite or virus in culture; type: cell-based, Burkholderia thailandensis; settings: for MIC90: Burkholderia thailandensis, read-out: MIC90 B. thailandensis; for Dilutions improvement shift on B. thailandensis MIC90 (between pH 7 and pH 5): pH 7 versus pH 5
A. baumannii ATCC 19606 [3] = assay: Preliminary MBC without and with sub-inhibitory polymyxin B (Example 4); type: cell-based, Acinetobacter baumannii; settings: Acinetobacter baumannii, ATCC19606, A. baumannii ATCC 19606, without polymyxin B, preliminary MBC, read-out: MBC without PB
S. epidermis 12228 = assay: MIC, standard panel of Gram-positive and Gram-negative bacteria (CLSI); type: cell-based, Staphylococcus epidermis; settings: Staphylococcus, 12228; CAMHB; read-out: MIC S. epidermis 12228
A. baumannii A489 = assay: MIC determination for Acinetobacter strains (Example 3); type: cell-based; settings: LEV R, CIP R, MRP R, IMP R, AMK R, TET R
A. baumannii J2 [4] = assay: Preliminary MBC without and with sub-inhibitory polymyxin B (Example 4); type: cell-based, Acinetobacter baumannii; settings: Acinetobacter baumannii, J2, A. baumannii J2, without polymyxin B, preliminary MBC, read-out: MBC without PB
A. baumannii A473 = assay: MIC determination for Acinetobacter strains (Example 3); type: cell-based; settings: LEV R, CIP R, MRP R, IMP R, AMK R, TET R
S. pneumoniae 1027 = assay: MIC, panel of quinolone-resistant strains (CLSI); type: cell-based; settings: Streptococcus pneumoniae, LEV R
P. aeruginosa 27853 = assay: MIC, standard panel of Gram-positive and Gram-negative bacteria (CLSI); type: cell-based, Pseudomonas aeruginosa; settings: Pseudomonas aeruginosa, 27853; CAMHB; read-out: MIC P. aeruginosa 27853
A. baumannii A329 = assay: MIC without and with sub-inhibitory polymyxin B (Example 4); type: cell-based, Acinetobacter baumannii; settings: Acinetobacter baumannii, A329, A. baumannii A329, without polymyxin B, read-out: MIC without PB
A. baumannii J2 [5] = assay: MIC determination for Acinetobacter strains (Example 3); type: cell-based; settings: LEV R, CIP R
A. baumannii ATCC 19606 [6] = assay: as above; type: cell-based; settings: ATCC19606, reference strain
A. baumannii A387 [7] = assay: Preliminary MBC without and with sub-inhibitory polymyxin B (Example 4); type: cell-based, Acinetobacter baumannii; settings: Acinetobacter baumannii, A387, A. baumannii A387, without polymyxin B, 2nd experiment, read-out: MBC without PB
A. baumannii A387 [8] = assay: MIC without and with sub-inhibitory polymyxin B (Example 4); type: cell-based, Acinetobacter baumannii; settings: Acinetobacter baumannii, A387, A. baumannii A387; without polymyxin B; 2nd experiment; visual reading; read-out: MIC without PB
P. aeruginosa ATCC 27853 = assay: MIC, selected panel of Gram-positive and Gram-negative strains (Example 5); type: cell-based; settings: Pseudomonas aeruginosa, ATCC27853; read-out: MIC P. aeruginosa ATCC 27853
[9] = test system: 11 strains of A. baumannii and one strain of Acinetobacter sp.; assay: Preliminary MBC without and with sub-inhibitory polymyxin B, whole panel (Example 4; also strains not listed separately); type: cell-based; settings: Acinetobacter baumannii, read-out: MBC without PB
[10] = test system: S. aureus BAA-1556 (USA300-Type MRSA, FQ-R); assay: MIC, selected panel of Gram-positive and Gram-negative strains (Example 5); type: cell-based, Staphylococcus aureus; settings: Staphylococcus aureus; read-out: MIC S. aureus BAA-1556 (USA300-Type MRSA, FQ-R)
E. coli ATCC 25922 = assay: as above; type: cell-based, Escherichia coli; settings: Escherichia coli, ATCC25922; read-out: MIC E. coli ATCC 25922
S. aureus SMITH = assay: MIC, panel of quinolone-resistant strains (CLSI); type: cell-based; settings: Staphylococcus aureus; CIP R
E. coli 25922 = assay: MIC, standard panel of Gram-positive and Gram-negative bacteria (CLSI); type: cell-based, Escherichia coli; settings: Escherichia coli, 25922; CAMHB; read-out: MIC E. coli 25922
[11] = A. baumannii A14, without polymyxin B, 1st experiment
[12] = A. baumannii A14, without polymyxin B, 2nd experiment

SMILES | MIC (A. baumannii A390 [1]) [µg/mL] | MIC (A. baumannii A390 [2]; 1st experiment) [µg/mL] | MIC (S. aureus 25923) [ng/mL] | MIC (E. faecium 19434) [µg/mL] | MIC (A. baumannii A472) [µg/mL] | MIC (S. aureus 101) [µg/mL] | MIC (E. coli IMP) [ng/mL] | MIC (A. Baumanii OXA-51) [µg/mL] | MIC90 (B. thailandensis) [µg/mL] | Dilutions improvement shift on B. thailandensis MIC90 (between pH 7 and pH 5) (B. thailandensis) | MBC (A. baumannii ATCC 19606 [3]; 2nd experiment) [µg/mL] | MIC (S. epidermis 12228) [ng/mL] | MIC (A. baumannii A489) [µg/mL] | MBC (A. baumannii J2 [4]; 2nd experiment) [µg/mL] | MIC (A. baumannii A473) [µg/mL] | MIC (S. pneumoniae 1027) [µg/mL] | MIC (P. aeruginosa 27853) [µg/mL] | MIC (A. baumannii A329; 1st experiment) [µg/mL] | MBC (A. baumannii J2 [4]; 1st experiment) [µg/mL] | MIC (A. baumannii ATCC 19606 [6]) [µg/mL] | also measured
Cc1c(-c2ccc(N)cc2)c(F)cn2c(=O)c(C(=O)O)cc(C3CC3)c12 [Compound 7, 8-(4-amino-phenyl)-1-cyclopropyl-7-fluoro-9-methyl-4-oxo-quinolizine-3-carboxylic acid] | 8 (≈ 22.7 µM) | 8 (≈ 22.7 µM) | < 8 | 2 (≈ 5.68 µM) | 4 (≈ 11.4 µM) | 1 (≈ 2.84 µM) | < 8 | 8 (≈ 22.7 µM) | < 0.048 | Yes, 4× | 0.25 (≈ 0.709 µM) | < 8 | 8 (≈ 22.7 µM) | 4 (≈ 11.4 µM) | 4 (≈ 11.4 µM) | 4 (≈ 11.4 µM) | 4 (≈ 11.4 µM) | – | – | – | MIC (S. aureus 25923 HS): 1 µg/mL (≈ 2.84 µM)
Cc1c(-c2ccc(N)c(F)c2)ccn2c(=O)c(C(=O)O)cc(C3CC3)c12 [Compound 1, 8-(3-fluoro-4-amino-phenyl)-1-cyclopropyl-9-methyl-4-oxo-quinolizine-3-carboxylic acid] | 16 (≈ 45.4 µM) | 16 (≈ 45.4 µM) | – | – | 8 (≈ 22.7 µM) | – | – | – | < 0.048 | Yes, 4× | 0.25 (≈ 0.709 µM) | – | 4 (≈ 11.4 µM) | 16 (≈ 45.4 µM) | 4 (≈ 11.4 µM) | – | – | 16 (≈ 45.4 µM) | 8 (≈ 22.7 µM) | 0.25 (≈ 0.709 µM) | MIC (A. baumannii A329; 2nd experiment, visual reading): 16 µg/mL (≈ 45.4 µM); MIC (A. baumannii A390 [2]; 2nd experiment, visual reading): 16 µg/mL (≈ 45.4 µM); MBC (A. baumannii ATCC 19606 [3]; 1st experiment): 0.25 µg/mL (≈ 0.709 µM); MIC (A. baumannii J2 [5]): 8 µg/mL (≈ 22.7 µM); MBC (A. baumannii A387 [7]): 4 µg/mL (≈ 11.4 µM); MIC (A. baumannii A387 [8]): 4 µg/mL (≈ 11.4 µM)
C[C@H]1COc2c(N3CCN(C)CC3)c(F)cc3c(=O)c(C(=O)O)cn1c23 [Levofloxacin, reference compound] | – | – | – | – | – | – | – | – | – | – | 1 (≈ 2.77 µM) | – | – | 32 (≈ 88.6 µM) | – | 16 (≈ 44.3 µM) | – | 32 (≈ 88.6 µM) | 32 (≈ 88.6 µM) | 1 (≈ 2.77 µM) | MIC (P. aeruginosa ATCC 27853): 1 µg/mL (≈ 2.77 µM); MBC [9, 11]: 32 µg/mL (≈ 88.6 µM); MBC [9, 12]: 32 µg/mL (≈ 88.6 µM); MBC ([9]; NCTC13301, A. baumannii NCTC 13301, without polymyxin B, 1st experiment): 32 µg/mL (≈ 88.6 µM); MIC [10]: 8 µg/mL (≈ 22.1 µM); MIC (E. coli ATCC 25922): 0.016 µg/mL (≈ 0.0443 µM); MBC (A. baumannii ATCC 19606 [3]; 1st experiment): 0.5 µg/mL (≈ 1.38 µM); MIC (A. baumannii J2 [5]): 32 µg/mL (≈ 88.6 µM); MIC (S. aureus SMITH): 8 µg/mL (≈ 22.1 µM)
Cc1c(-c2ccc(CN)c(F)c2)ccn2c(=O)c(C(=O)O)cc(C3CC3)c12 [Compound 4, 8-(3-fluoro-4-aminomethyl-phenyl)-1-cyclopropyl-9-methyl-4-oxo-quinolizine-3-carboxylic acid] | – | – | – | 2 (≈ 5.46 µM) | – | 4 (≈ 10.9 µM) | < 8 | 16 (≈ 43.7 µM) | – | – | – | – | – | 16 (≈ 43.7 µM) | – | 1 (≈ 2.73 µM) | – | 16 (≈ 43.7 µM) | 4 (≈ 10.9 µM) | – | MIC (P. aeruginosa ATCC 27853): 1 µg/mL (≈ 2.73 µM); MIC (A. baumannii A329; 2nd experiment, visual reading): 16 µg/mL (≈ 43.7 µM); MBC [9, 11]: 16 µg/mL (≈ 43.7 µM); MBC [9, 12]: > 32 µg/mL; MBC ([9]; NCTC13301, A. baumannii NCTC 13301, without polymyxin B, 2nd experiment): 32 µg/mL (≈ 87.3 µM); MIC [10]: 0.5 µg/mL (≈ 1.36 µM); MIC (E. coli ATCC 25922): 0.016 µg/mL (≈ 0.0437 µM); MIC (E. coli 25922): < 0.03 µg/mL
Cc1c(-c2ccc(N)cc2)ccn2c(=O)c(C(=O)O)cc(C3CC3)c12 [Compound 8, 8-(4-amino-phenyl)-1-cyclopropyl-9-methyl-4-oxo-quinolizine-3-carboxylic acid] | 16 (≈ 47.9 µM) | 16 (≈ 47.9 µM) | < 8 | – | 4 (≈ 12 µM) | – | < 8 | 4 (≈ 12 µM) | < 0.024 | – | – | < 8 | – | 4 (≈ 12 µM) | – | 2 (≈ 5.98 µM) | 1 (≈ 2.99 µM) | 16 (≈ 47.9 µM) | 8 (≈ 23.9 µM) | 1 (≈ 2.99 µM) | MIC (A. baumannii A390 [2]; 2nd experiment, visual reading): 16 µg/mL (≈ 47.9 µM); MIC (S. aureus SMITH): < 0.03 µg/mL; MIC (A. baumannii A387 [8]): 1 µg/mL (≈ 2.99 µM)
